Experimental data reported in patent publication US9757408B2 (Hayashibara Co., Ltd., priority 2010, dated 2017).
Marks after values point to notes of the source that are not given here.

Columns and labels:
[1] = test system: IL-4 production of spleen cells; experiment: IL-4 production of spleen cells stimulated with anti-CD3 antibody, from gel-treated mice (Experiment 16); type: in vivo, NC/Nga mice; conditions: for production level of IL-4 of spleen cells stimulated with the anti-CD3 antibody: compared to mice applied with gel prepared by adding refined water (Experiment group 1); for Content of IL-4: supernatant of spleen cells stimulated with anti-CD3 antibody
Description: (§1) On Friday of the 6th week of the induction (46th day after initiating the application), all the mice were sacrificed, followed by isolating their spleens and collecting spleen cells in usual manner. […] To each well 2 μg/mL of “Purified Mouse CD3ε Monoclonal Antibody”, a product name of an anti-CD3 antibody, commercialized by Cosmo Bio Co., Ltd., Tokyo, Japan, was added, and the cells were incubated at 37° C. for three days in a 5% v/v CO2 incubator, followed by assaying the levels of cytokines in each supernatant thereof.
(§2) The results are in Table 19 in parallel.

[2] = test system: IL-5 production of spleen cells; experiment: IL-5 production of spleen cells stimulated with anti-CD3 antibody, from gel-treated mice (Experiment 16); type: in vivo, NC/Nga mice; conditions: for production level of IL-5 of spleen cells stimulated with the anti-CD3 antibody: compared to mice applied with gel prepared by adding refined water (Experiment group 1); for Content of IL-5: supernatant of spleen cells stimulated with anti-CD3 antibody, picryl chloride-sensitized mice applied with gel
Description: as §1, §2

[3] = test system: TNF-α production from NHEK cells; experiment: TNF-α production from NHEK cells irradiated with ultraviolet B (Experiment 17); type: cell-based, human; conditions: for TNF-α: NHEK cells, stimulation by ultraviolet rays; for production of TNF-α from NHEK cells induced by ultraviolet rays: UVB 40 mJ/cm^2, supernatant at six hours
Description: (§3) “CELLMATRIX TYPE IV”, a product name of collagen for tissue culture commercialized by Nitta Gelatin Inc., Osaka, Japan, which had been diluted with PBS(K-) by 10 times, was previously placed in “FALCON 35-3001”, a product name of 35 mm petri dish commercialized by Becton Dickinson and Company, NJ, USA, in an amount of 1 mL/plate, and then allowed to stand at ambient temperature for 10 min, followed by removing an excessive amount of CELLMATRIX, drying the petri dish in air, and washing it thrice with PBS(K-). […] The cells were cultured at 37° C. in a 5% v/v CO2 incubator. On the 2nd and 4th days after the cell inoculation, the medium was replaced with EpiLife medium free of EDGS (1 mL/plate). On the 5th day after the cell inoculation, the supernatant was removed, and the petri dish was washed twice by adding 1 mL/petri dish of Hanks' balanced salt solution (called “HBSS (−) buffer”, hereinafter). Further, 2 mL/petri dish of HBSS (−) buffer was added to the petri dish which was then placed in the position 15 cm apart from an ultraviolet ray light source and irradiated with 40 mJ/cm^2 of ultraviolet B radiation. […] As an ultraviolet ray light source, “NS-8F”, a light source for actual use commercialized by Sanwa Medical Co., Ltd., Okayama, Japan, equipped with an ultraviolet B radiation lamp was used, and the radiation dose was measured on “UVR-305/365D (II)”, an ultraviolet ray meter commercialized by Topcon Corporation, Tokyo, Japan. TNF-α was assayed by the same method as in Experiment 2. The remaining other cytokines were assayed with an IL-1α assay kit, commercialized by R & D Systems Inc., MN, USA, and an IL-8 assay kit commercialized by BioLegend, CA, USA.

[4] = test system: IL-1α production from NHEK cells; experiment: IL-1α production from NHEK cells irradiated with ultraviolet B (Experiment 17); type: cell-based, human; conditions: for IL-1α: NHEK cells, stimulation by ultraviolet rays; for production of IL-1α from NHEK cells augmented by ultraviolet rays: UVB 40 mJ/cm^2, supernatant at six hours
Description: as §3

[5] = test system: IL-12 production from mouse intraperitoneal macrophages; experiment: IC50 for IL-12 production from mouse macrophages, LPS + IFN-γ (Experiment 19); type: cell-based; conditions: for IC50: Mus musculus, Macrophage, 20 h, read-out: IC50 Concentration IL-12
Description: (§4) After completion of the culture, the supernatant in each well was collected and assayed for cytokines and prostaglandin E2 (called “PGE2”, hereinafter) with ELISA.

[6] = test system: mice with colitis induced by dextran sulfate sodium; experiment: Dextran sulfate sodium colitis mice: diarrhea/hematochezia scores, DAI, haptoglobin (Experiment 13); type: in vivo, C57BL/6 mice; conditions: dextran sulfate sodium intake; for Content of haptoglobin: blood on 11th day
Description: Dextran sulfate sodium (commercialized by MP Biomedicals, CA, USA, molecular weight of 36,000 to 50,000) was dissolved in tap water, and all the mice of these five groups consisting of eight heads each were allowed to freely take the solution for five days (Experiment groups 2 to 5). […] The eight mice of the remaining one group were administered through a gastric tube with PBS once a day at a dose of 0.2 mL/head over 11 days from the day of initiating the administration of dextran sulfate sodium (Experiment group 2). The five mice of one group, which had not been administered with dextran sulfate sodium, were bred for 11 days on the normal feed while allowing them to take tap water freely (Experiment group 1).
The mice were weighed and their degree of diarrhea and hematochezia were macroscopically observed every day over 11 days from the day of initiating the intake of dextran sulfate sodium. The body weight reduction percentage (%) was determined by dividing the body weight of a mouse at 11th day after initiating the intake of dextran sulfate sodium by the body weight of the mouse at the day of initiating the intake, and multiplying the value by 100, and subtracting the resulting value from 100. The scores of diarrhea and hematochezia and the body weight reduction percentage (%) in each mouse were scored according to the criteria as shown in Table 13. For each group, the average of the total scores of diarrhea and hematochezia on days ranging from the day (intake day 0) of initiating the intake of dextran sulfate sodium to 11th day therefrom (intake day 10) are determined and shown in Table 14. The total scores of diarrhea, hematochezia, and body weight reduction percentage for each mouse at 11th day (intake day 10) after initiating the intake of dextran sulfate sodium are calculated for disease activity index (DAI) used as an index for colitis, averaged for each group, and shown in Table 14. On 11th day after initiating the intake of dextran sulfate sodium, each mouse was collected blood, followed by assaying haptoglobin or an acute phase protein, as an index for inflammatory, on an ELISA kit commercialized by Life Diagnostics USA, and averaging the data for each group. The results are in Table 14 in parallel. Since one mouse in Experiment group 2 administered with only dextran sulfate sodium was dead at 11th day after initiating the intake of dextran sulfate sodium, the results of Experiment group 2 at 11th day (intake day 10) after initiating the intake of dextran sulfate sodium represent the average of seven mice.

[7] = test system: IL-6 production from mouse intraperitoneal macrophages; experiment: IC50 for IL-6 production from mouse macrophages, LPS + IFN-γ (Experiment 19); type: cell-based; conditions: for IC50: Mus musculus, Macrophage, 20 h, read-out: IC50 Concentration IL-6
Description: as §4

[8] = picryl chloride-sensitized mice applied with gel
[9] = mouse intraperitoneal macrophages stimulated with LPS and IFN-γ

SMILES: Nc1c2ncn([C@@H]3O[C@H](CO)[C@@H](O)[C@H]3O)c2nc[n+]1[O-] [ANO, adenosine N1-oxide]
- production level of IL-4 of spleen cells stimulated with the anti-CD3 antibody [1]: significantly lower
- production ratio of IL-4/IFN-γ of spleen cells stimulated with the anti-CD3 antibody ([1]; spleen cells of gel-treated mice): close to that of the mice of the normal group
- Ratio of IL-4/IFN-γ ([1]; spleen cells stimulated with anti-CD3 antibody, picryl chloride-sensitized mice applied with gel): 0.32
- Content of IL-4 [1, 8]: 2.8* ng/mL
- production level of IL-5 of spleen cells stimulated with the anti-CD3 antibody [2]: tended to decrease
- Content of IL-5 [2]: 157 ng/mL
- TNF-α ([3]; 1 μM): 119 pg/mL
- TNF-α ([3]; 5 μM): 76 pg/mL
- TNF-α ([3]; 10 μM): 76 pg/mL
- production of TNF-α from NHEK cells induced by ultraviolet rays [3]: inhibited
- IL-1α ([4]; 1 μM): 203 pg/mL
- IL-1α ([4]; 5 μM): 173 pg/mL
- IL-1α ([4]; 10 μM): 140 pg/mL
- production of IL-1α from NHEK cells augmented by ultraviolet rays [4]: inhibited
- IC50 [5]: 1.4 µM
- inhibitory action on the production of IL-12 (in words) [5, 9]: showed an inhibitory action
- Content of haptoglobin ([6]; 33 mg/kg orally once a day): 3.7 mg/mL
- Total scores of diarrhea and hematochezia, day 0 ([6]; 33 mg/kg orally once a day, day 0 after initiating the intake): 0
- Total scores of diarrhea and hematochezia, day 1 ([6]; 33 mg/kg orally once a day): 0
- Total scores of diarrhea and hematochezia, day 2 ([6]; 33 mg/kg orally once a day): 0
- Total scores of diarrhea and hematochezia, day 3 ([6]; 33 mg/kg orally once a day): 0
- Total scores of diarrhea and hematochezia, day 4 ([6]; 33 mg/kg orally once a day): 0.3
- Total scores of diarrhea and hematochezia, day 5 ([6]; 33 mg/kg orally once a day): 0.3
- Total scores of diarrhea and hematochezia, day 6 ([6]; 33 mg/kg orally once a day): 0.5
- Total scores of diarrhea and hematochezia, day 7 ([6]; 33 mg/kg orally once a day): 0.6
- Total scores of diarrhea and hematochezia, day 8 ([6]; 33 mg/kg orally once a day): 0.9
- Total scores of diarrhea and hematochezia, day 9 ([6]; 33 mg/kg orally once a day): 0.8
- DAI (total scores of diarrhea, hematochezia, and body weight reduction percentage), day 10 ([6]; 33 mg/kg orally once a day): 3.8*
- Total scores of diarrhea and hematochezia, day 10 ([6]; 33 mg/kg orally once a day): 0.7
- Content of haptoglobin ([6]; 100 mg/kg orally once a day): 2.9* mg/mL
- Total scores of diarrhea and hematochezia, day 0 ([6]; 100 mg/kg orally once a day, day 0): 0
- Total scores of diarrhea and hematochezia, day 1 ([6]; 100 mg/kg orally once a day): 0
- Total scores of diarrhea and hematochezia, day 2 ([6]; 100 mg/kg orally once a day): 0
- Total scores of diarrhea and hematochezia, day 3 ([6]; 100 mg/kg orally once a day): 0.3
- Total scores of diarrhea and hematochezia, day 4 ([6]; 100 mg/kg orally once a day): 0.4
- Total scores of diarrhea and hematochezia, day 5 ([6]; 100 mg/kg orally once a day): 0.4
- Total scores of diarrhea and hematochezia, day 6 ([6]; 100 mg/kg orally once a day): 0.5
- Total scores of diarrhea and hematochezia, day 7 ([6]; 100 mg/kg orally once a day): 0.6
- Total scores of diarrhea and hematochezia, day 8 ([6]; 100 mg/kg orally once a day): 0.6
- Total scores of diarrhea and hematochezia, day 9 ([6]; 100 mg/kg orally once a day): 0.7
- DAI (total scores of diarrhea, hematochezia, and body weight reduction percentage), day 10 ([6]; 100 mg/kg orally once a day): 3.4**
- Total scores of diarrhea and hematochezia, day 10 ([6]; 100 mg/kg orally once a day): 0.6
- IC50 [7]: 0.9 µM
- inhibition of the production of IL-6 (in words) [7, 9]: strongly inhibited

SMILES: Nc1ncnc2c1ncn2[C@@H]1O[C@H](CO)[C@@H](O)[C@H]1O [AN, adenosine]
- production level of IL-4 of spleen cells stimulated with the anti-CD3 antibody [1]: showed no difference
- Content of IL-4 [1, 8]: 9.8 ng/mL
- production level of IL-5 of spleen cells stimulated with the anti-CD3 antibody [2]: showed no difference
- Content of IL-5 [2]: 225 ng/mL
- TNF-α ([3]; 1 μM): 144 pg/mL
- TNF-α ([3]; 5 μM): 138 pg/mL
- TNF-α ([3]; 10 μM): 138 pg/mL
- production of TNF-α from NHEK cells induced by ultraviolet rays [3]: did not influence
- IL-1α ([4]; 1 μM): 243 pg/mL
- IL-1α ([4]; 5 μM): 244 pg/mL
- IL-1α ([4]; 10 μM): 239 pg/mL
- production of IL-1α from NHEK cells augmented by ultraviolet rays [4]: did not influence
- IC50 [5]: 14 µM
- Content of haptoglobin ([6]; 94 mg/kg orally once a day): 4.0 mg/mL
- Total scores of diarrhea and hematochezia, day 0 ([6]; 94 mg/kg orally once a day, day 0): 0
- Total scores of diarrhea and hematochezia, day 1 ([6]; 94 mg/kg orally once a day): 0
- Total scores of diarrhea and hematochezia, day 2 ([6]; 94 mg/kg orally once a day): 0
- Total scores of diarrhea and hematochezia, day 3 ([6]; 94 mg/kg orally once a day): 0.3
- Total scores of diarrhea and hematochezia, day 4 ([6]; 94 mg/kg orally once a day): 1.0
- Total scores of diarrhea and hematochezia, day 5 ([6]; 94 mg/kg orally once a day): 1.4
- Total scores of diarrhea and hematochezia, day 6 ([6]; 94 mg/kg orally once a day): 1.3
- Total scores of diarrhea and hematochezia, day 7 ([6]; 94 mg/kg orally once a day): 1.4
- Total scores of diarrhea and hematochezia, day 8 ([6]; 94 mg/kg orally once a day): 1.4
- Total scores of diarrhea and hematochezia, day 9 ([6]; 94 mg/kg orally once a day): 1.4
- DAI (total scores of diarrhea, hematochezia, and body weight reduction percentage), day 10 ([6]; 94 mg/kg orally once a day): 4.6
- Total scores of diarrhea and hematochezia, day 10 ([6]; 94 mg/kg orally once a day): 1.6
- IC50 [7]: 50.1 µM
